Data as given in US4957923A, “Diuretic or antihypertensive composition” (Fujisawa Pharmaceutical Co., Ltd., priority 1988, dated 1990).

How the values were obtained:
[1] = tested on: healthy male adult volunteers; experiment: Antihypertensive action (human); assay type: in vivo; conditions: mean ± S.D.
Description: To 6 healthy male adult volunteers, 150 mg of compound A (one capsule each of capsules shown in Examples 1 and 2 below) was orally administered twice a day at a 12-hour interval from 30 minutes after breakfast to 2 hours after supper for 8 consecutive days (except on day 8 when the administration was made only once in the morning) and the systolic blood pressure in standing position was measured.

[2] = tested on: DOCA hypertensive rats; experiment: Antihypertension action (DOCA hypertensive rats); assay type: in vivo, rat (Wistar)
Description: Male Wistar rats, 10 weeks old, were subjected to left nephrectomy and 2 to 4 days after operation, deoxycorticosterone acetate was administered subcutaneously in a dose of 30 mg/ml/kg twice a week. The animals were given 1% saline for drinking water and the individuals showing a mean blood pressure of ≥150 mmHg at 15 weeks of age were submitted to the experiment. After catheterization, saline for drinking water was replaced with tap water. At the beginning of the experiment, the test rats had mean blood pressures from 152 to 204 mmHg, heart rates from 354 to 462 beats/min. and body weights from 232 to 318 g. 3~5 Animals per group were used.
3 Or 4 days before the beginning of the experiment, one end of a catheter for blood pressure measurement was passed from the femoral artery to the abdominal aorta of each rat and the other end was passed beneath the skin and fixed in exposed position in the dorsocervical region. The drug was orally administered once a day for 5 consecutive days. The rats had been deprived of food for about 3 hours before drug administration. The blood pressure was measured before administration and 5 hours after administration of days 1, 3 and 5. At each blood pressure measurement, the mean blood pressure was observed via a pressure transducer connected to the dorsocervical end of the catheter for blood pressure measurement and the stabilized mean blood pressure was recorded.
Drug was suspended and diluted using a 0.5% solution of methylcellulose and 5ml/kg of the suspension was orally administered.

[3] = tested on: healthy male adult volunteers; experiment: Diuretic action (human); assay type: in vivo; conditions: mean ± S.D.
Description: To healthy male adult volunteers, 300 mg (the capsule of Example 3 below ×1) (6 men) or 600 mg (the capsule of Example 3 below ×2) (6 men) of compound A was orally […] administered in fasting condition, or 600 mg (the capsule of Example 3 below×2) (6 men) of compound A was orally administered 30 minutes after breakfast. In each group, the 24-hr urine volume before administration and that on day 1 after administration were respectively determined.

[4] = 3.2 mg/kg p.o. once a day, Day 1 before administration (baseline)
[5] = 3.2 mg/kg p.o. once a day, Day 3 after 5 hr
[6] = 3.2 mg/kg p.o. once a day, Day 3 before administration
[7] = 3.2 mg/kg p.o. once a day, Day 5 after 5 hr
[8] = 3.2 mg/kg p.o. once a day, Day 5 before administration
[9] = 10 mg/kg p.o. once a day, Day 1 after 5 hr
[10] = 10 mg/kg p.o. once a day, Day 1 before administration (baseline)
[11] = 10 mg/kg p.o. once a day, Day 3 after 5 hr
[12] = 10 mg/kg p.o. once a day, Day 3 before administration
[13] = 10 mg/kg p.o. once a day, Day 5 after 5 hr
[14] = 10 mg/kg p.o. once a day, Day 5 before administration
[15] = 32 mg/kg p.o. once a day, Day 1 after 5 hr
[16] = 32 mg/kg p.o. once a day, Day 1 before administration (baseline)
[17] = 32 mg/kg p.o. once a day, Day 3 after 5 hr
[18] = 32 mg/kg p.o. once a day, Day 3 before administration
[19] = 32 mg/kg p.o. once a day, Day 5 after 5 hr
[20] = 32 mg/kg p.o. once a day, Day 5 before administration

SMILES: O=C(O)Cn1c(=O)n(Cc2ccc(Br)cc2F)c(=O)c2ccc(Cl)cc21 [Compound A, 2-[7-Chloro-3-(4-bromo-2-fluorobenzyl)-1,2,3,4-tetrahydro-2,4-dioxoquinazolin-1-yl]acetic acid]
- Systolic blood pressure in standing position ([1]; 150 mg p.o. twice a day for 8 days, Day 9 immediately before breakfast): 113 ± 3 mmHg
- Systolic blood pressure in standing position ([1]; 150 mg p.o. twice a day for 8 days, Day 10 immediately before breakfast): 117 ± 6 mmHg
- Systolic blood pressure in standing position ([1]; 150 mg p.o. twice a day, Day 1 immediately before breakfast (before first dose, baseline)): 121 ± 8 mmHg
- Systolic blood pressure in standing position ([1]; 150 mg p.o. twice a day, Day 2 immediately before breakfast): 113 ± 6 mmHg
- Systolic blood pressure in standing position ([1]; 150 mg p.o. twice a day, Day 3 immediately before breakfast): 114 ± 7 mmHg
- Systolic blood pressure in standing position ([1]; 150 mg p.o. twice a day, Day 4 immediately before breakfast): 114 ± 5 mmHg
- Systolic blood pressure in standing position ([1]; 150 mg p.o. twice a day, Day 5 immediately before breakfast): 110 ± 8 mmHg
- Systolic blood pressure in standing position ([1]; 150 mg p.o. twice a day, Day 6 immediately before breakfast): 114 ± 6 mmHg
- Systolic blood pressure in standing position ([1]; 150 mg p.o. twice a day, Day 7 immediately before breakfast): 116 ± 8 mmHg
- Systolic blood pressure in standing position ([1]; 150 mg p.o. twice a day, Day 8 immediately before breakfast): 117 ± 5 mmHg
- Mean blood pressure ([2]; 3.2 mg/kg p.o. once a day, Day 1 after 5 hr): 148 mm Hg
- Mean blood pressure [2, 4]: 175 mm Hg
- Percentage of change (mean blood pressure) [2, 4]: 0.0%
- Mean blood pressure [2, 5]: 142 mm Hg
- Percentage of change (mean blood pressure) [2, 5]: -18.6%
- Mean blood pressure [2, 6]: 153 mm Hg
- Percentage of change (mean blood pressure) [2, 6]: -13.4%
- Mean blood pressure [2, 7]: 131 mm Hg
- Percentage of change (mean blood pressure) [2, 7]: -24.9%
- Mean blood pressure [2, 8]: 139 mm Hg
- Percentage of change (mean blood pressure) [2, 8]: -21.0%
- Mean blood pressure [2, 9]: 145 mm Hg
- Percentage of change (mean blood pressure) [2, 9]: -13.0%
- Mean blood pressure [2, 10]: 166 mm Hg
- Percentage of change (mean blood pressure) [2, 10]: 0.0%
- Mean blood pressure [2, 11]: 127 mm Hg
- Percentage of change (mean blood pressure) [2, 11]: -23.1%
- Mean blood pressure [2, 12]: 137 mm Hg
- Percentage of change (mean blood pressure) [2, 12]: -17.2%
- Mean blood pressure [2, 13]: 118 mm Hg
- Percentage of change (mean blood pressure) [2, 13]: -29.1%
- Mean blood pressure [2, 14]: 127 mm Hg
- Percentage of change (mean blood pressure) [2, 14]: -23.2%
- Mean blood pressure [2, 15]: 133 mm Hg
- Percentage of change (mean blood pressure) [2, 15]: -20.1%
- Mean blood pressure [2, 16]: 168 mm Hg
- Percentage of change (mean blood pressure) [2, 16]: 0.0%
- Mean blood pressure [2, 17]: 132 mm Hg
- Percentage of change (mean blood pressure) [2, 17]: -20.1%
- Mean blood pressure [2, 18]: 133 mm Hg
- Percentage of change (mean blood pressure) [2, 18]: -19.2%
- Mean blood pressure [2, 19]: 116 mm Hg
- Percentage of change (mean blood pressure) [2, 19]: -30.2%
- Mean blood pressure [2, 20]: 117 mm Hg
- Percentage of change (mean blood pressure) [2, 20]: -29.5%
- Urine volume ([3]; 300 mg p.o., without breakfast, 0-2 hr): 95 ± 57 mL
- Urine volume ([3]; 300 mg p.o., without breakfast, 2-4 hr): 136 ± 60 mL
- Urine volume ([3]; 300 mg p.o., without breakfast, 4-8 hr): 328 ± 55 mL
- Urine volume ([3]; 300 mg p.o., without breakfast, 8-12 hr): 340 ± 79 mL
- Urine volume ([3]; 300 mg p.o., without breakfast, 12-24 hr): 609 ± 147 mL
- Urine volume ([3]; 300 mg p.o., without breakfast, -24-0 hr (before administration, baseline)): 902 ± 256 mL
- Urine volume ([3]; 300 mg p.o., without breakfast, total 0-24 hr): 1508 ± 274 mL
- Urine volume ([3]; 600 mg p.o., 30 min after breakfast, 0-2 hr): 130 ± 46 mL
- Urine volume ([3]; 600 mg p.o., 30 min after breakfast, 2-4 hr): 151 ± 19 mL
- Urine volume ([3]; 600 mg p.o., 30 min after breakfast, 4-8 hr): 414 ± 161 mL
- Urine volume ([3]; 600 mg p.o., 30 min after breakfast, 8-12 hr): 507 ± 139 mL
- Urine volume ([3]; 600 mg p.o., 30 min after breakfast, 12-24 hr): 829 ± 240 mL
- Urine volume ([3]; 600 mg p.o., 30 min after breakfast, -24-0 hr (before administration, baseline)): 1234 ± 212 mL
- Urine volume ([3]; 600 mg p.o., 30 min after breakfast, total 0-24 hr): 2031 ± 362 mL
- Urine volume ([3]; 600 mg p.o., without breakfast, 0-2 hr): 64 ± 24 mL
- Urine volume ([3]; 600 mg p.o., without breakfast, 2-4 hr): 82 ± 32 mL
- Urine volume ([3]; 600 mg p.o., without breakfast, 4-8 hr): 292 ± 50 mL
- Urine volume ([3]; 600 mg p.o., without breakfast, 8-12 hr): 393 ± 141 mL
- Urine volume ([3]; 600 mg p.o., without breakfast, 12-24 hr): 863 ± 253 mL
- Urine volume ([3]; 600 mg p.o., without breakfast, -24-0 hr (before administration, baseline)): 982 ± 293 mL
- Urine volume ([3]; 600 mg p.o., without breakfast, total 0-24 hr): 1693 ± 368 mL
